Measured values: patent US20100056525A1, “5- AND 6- SUBSTITUTED BENZIMIDAZOLE THIOPHENE COMPOUNDS” (priority 2006, published 2010)

Key:
PLK1 kinase domain = biological target: T1, PLK1 kinase domain (Homo sapiens, UniProt P53350); assay: Assay for Inhibition of PLK1 (SPA, 33P-ATP); assay type: biochemical; details: 2 nM PLK1 kinase domain, 1 μM ATP, 22° C.; read-out: PLK1 pIC50 (converted)
T1 construct: made in house; host or cells: baculovirus infected T. ni cells
Protocol: A. Preparation of 6× N-Terminal His-Tagged PLK Kinase Domain
All procedures were performed at 4° C. Cells were lysed in 50 mM HEPES, 200 mM NaCl, 50 mM imidazole, 5% glycerol; pH 7.5. The homogenate was centrifuged at 14K rpm in a SLA-1500 rotor for 1 hr and the supernatant filtered through a 1.2 micron filter. The supernatant was loaded onto a Nickel chelating Sepharose (Amersham Pharmacia) column and washed with lysis buffer. Protein was eluted using 20%, 30% and 100% buffer B steps where buffer B was 50 mM HEPES, 200 mM NaCl, 300 mM imidazole, 5% glycerol; pH 7.5. Fractions containing PLK were determined by SDS-PAGE. Fractions containing PLK were diluted five-fold with 50 mM HEPES, 1 mM DTT, 5% glycerol; pH 7.5, then loaded on an SP Sepharose (Amersham Pharmacia) column. After washing the column with 50 mM HEPES, 1 mM DTT, 5% glycerol; pH 7.5, PLK was step eluted with 50 mM HEPES, 1 mM DTT, 500 mM NaCl; 5% glycerol; pH 7.5. PLK was concentrated using a 10 kDa molecular weight cutoff membrane and then loaded onto a Superdex 200 gel filtration (Amersham Pharmacia) column equilibrated in 25 mM HEPES, 1 mM DTT, 500 mM NaCl, 5% glycerol; pH 7.5. Fractions containing PLK were determined by SDS-PAGE. PLK was pooled, aliquoted and stored at −80° C. Samples were quality controlled using mass spectrometry, N-terminal sequencing and amino acid analysis.
B. Enzyme Activity +/− Inhibitors was Determined as Follows:
All measurements were obtained under conditions where signal production increased linearly with time and enzyme. Test compounds were added to white 384-well assay plates (0.1 μL for 10 μL and some 20 μL assays, 1 μL for some 20 μL assays) at variable known concentrations in 100% DMSO. DMSO (1-5% final, as appropriate) and EDTA (65 mM in reaction) were used as controls.
Reaction Mix (10 or 20 μL) was quickly added to each well immediately following addition of enzyme via automated liquid handlers and incubated 1-1.5 h at 22° C. The 20 μL enzymatic reactions were stopped with 50 μL of stop mix (50 mM EDTA, 4.0 mg/mL Streptavidin SPA beads in Standard Dulbecco's PBS (without Mg^2+ and Ca^2+), 50 μM ATP) per well. The 10 μL reactions were stopped with 10 μL of stop mix (50 mM EDTA, 3.0 mg/mL Streptavidin-coupled SPA Imaging Beads (“LeadSeeker”) in Standard Dulbecco's PBS (without Mg^2+ and Ca^2+), 50 μM ATP) per well. Plates were sealed with clear plastic seals, spun at 500×g for 1 min or settled overnight, and counted in Packard TopCount for 30 seconds/well (regular SPA) or imaged using a Viewlux imager (LeadSeeker SPA). Signal above background (EDTA controls) was converted to percent inhibition relative to that obtained in control (DMSO-only) wells.

[1] = test system: HCT-116 (human colon) cells; assay: Cell-Titer Glo Cell Growth Inhibition Assay; assay type: cell-based; details: HCT-116 cells, 72 h incubation, CellTiter-Glo, read-out: HCT116 IC50
Protocol: A549-L (human lung), Colo 205 (human colon), HCT-116 (human colon), HT29 (human colon), MX-1 (human breast), SKOV3 (human ovary) and P388 (murine leukemia) cell lines were cultured in RPM11640 containing 10% fetal bovine serum at 37° C. in a 5% CO2 incubator. Cell lines were split into T75 flasks (Falcon #353136) two to three days prior to assay set up at density which yields approximately 70-80% confluency at time of harvest for assay. Cells were harvested using 0.25% trypsin with EDTA (Glibco/Invitrogen #25200-056), Cell counts were performed on cell suspensions using Trypan Blue exclusion staining, cells were then plated in 105 µL of culture media per well at the following densities in 96 well Costar #3916 black flat bottom plates: A549-L 500 cells/well, Colo205 500 cells/well, HCT-116 500 cells/well, HT29 500 cells/well, MX-1 500 cells/well, SKOV3 500 cells/well and P388 250 cells/well. All plates were placed at 5% CO2 37° C. overnight and then test compounds were added the following day. One plate of each cell type was treated with CellTiter-Glo (Promega #G7573) for a day 0 proliferation measurement and read as described below. The test compounds were prepared in clear U bottom polypropylene 96 well plates (Falcon #35-1190 with consecutive two fold dilutions. 9 uL of these dilutions was added into each well of the cell plates. The final concentration of DMSO in all wells was 0.15%. Cells were incubated at 37° C., 5% CO2 for 72 h. Following 72 h of incubation with compounds each plate was developed and read. CellTiter-Glo reagent was added to assay plates using a volume equivalent to the cell culture volume in the wells. Plates were shaken for approximately 2 min and incubated at rt for approximately 15 min and the chemiluminescent signal was read on the Victor V or Envison 2100 reader. […] Concentration of compound that inhibited 50% of cell growth (IC50) was analyzed by 4 or 6 parameter fit of data using XLfit, value of no cell addition was substracted from all samples for background.

T1 sequence (P53350 21-346): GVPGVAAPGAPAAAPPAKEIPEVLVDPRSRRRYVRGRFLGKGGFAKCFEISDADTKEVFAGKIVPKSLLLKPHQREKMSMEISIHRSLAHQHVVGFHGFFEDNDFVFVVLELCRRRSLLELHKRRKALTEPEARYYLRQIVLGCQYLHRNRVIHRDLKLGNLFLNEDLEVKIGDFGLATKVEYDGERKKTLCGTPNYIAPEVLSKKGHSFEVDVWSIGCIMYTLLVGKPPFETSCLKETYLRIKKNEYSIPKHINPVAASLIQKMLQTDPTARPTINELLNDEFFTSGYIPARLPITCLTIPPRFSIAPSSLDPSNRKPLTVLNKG

| SMILES | IC50 (PLK1 kinase domain) | IC50 [1] |
| --- | --- | --- |
| C[C@@H](Oc1cc(-n2cnc3cc(-c4ccc(N(C)CCN(C)C)nc4)ccc32)sc1C(N)=O)c1ccccc1Cl [Example 27, 3-{[(1R)-1-(2-chlorophenyl)ethyl]oxy}-5-(5-[6-[[2-(dimethylamino)ethyl](methyl)amino]-3-pyridinyl]-1H-benzimidazol-1-yl)-2-thiophenecarboxamide] | < 100 nM | < 500 nM |
| C[C@@H](Oc1cc(-n2cnc3cc(-c4ccc(NCCO)nc4)ccc32)sc1C(N)=O)c1ccccc1Cl [Example 28, 3-{[(1R)-1-(2-chlorophenyl)ethyl]oxy}-5-(5-[6-[(2-hydroxyethyl)amino]-3-pyridinyl]-1H-benzimidazol-1-yl)-2-thiophenecarboxamide] | < 100 nM | < 500 nM |
| C[C@@H](Oc1cc(-n2cnc3cc(-c4ccc(NCCCN(C)C)nc4)ccc32)sc1C(N)=O)c1ccccc1Cl [Example 29, 3-{[(1R)-1-(2-chlorophenyl)ethyl]oxy}-5-[5-(6-{[3-(dimethylamino)propyl]amino}-3-pyridinyl)-1H-benzimidazol-1-yl]-2-thiophenecarboxamide] | < 100 nM | < 500 nM |
| C[C@@H](Oc1cc(-n2cnc3cc(-c4ccc(NCCN(C)C)nc4)ccc32)sc1C(N)=O)c1ccccc1Cl [Example 30, 3-{[(1R)-1-(2-chlorophenyl)ethyl]oxy}-5-[5-(6-{[2-(dimethylamino)ethyl]amino}-3-pyridinyl)-1H-benzimidazol-1-yl]-2-thiophenecarboxamide] | < 100 nM | < 500 nM |
| C[C@@H](Oc1cc(-n2cnc3cc(-c4ccc(NCCCN5CCN(C)CC5)nc4)ccc32)sc1C(N)=O)c1ccccc1Cl [Example 31, 3-{[(1R)-1-(2-chlorophenyl)ethyl]oxy}-5-[5-(6-{[3-(4-methyl-1-piperazinyl)propyl]amino}-3-pyridinyl)-1H-benzimidazol-1-yl]-2-thiophenecarboxamide] | < 100 nM | < 500 nM |
| C[C@@H](Oc1cc(-n2cnc3cc(-c4ccc(NCCN5CCOCC5)nc4)ccc32)sc1C(N)=O)c1ccccc1Cl [Example 32, 3-{[(1R)-1-(2-chlorophenyl)ethyl]oxy}-5-[5-(6-{[2-(4-morpholinyl)ethyl]amino}-3-pyridinyl)-1H-benzimidazol-1-yl]-2-thiophenecarboxamide] | < 100 nM | < 500 nM |
| C[C@@H](Oc1cc(-n2cnc3cc(-c4ccc(N(C)CCCN(C)C)nc4)ccc32)sc1C(N)=O)c1ccccc1Cl [Example 33, 3-{[(1R)-1-(2-chlorophenyl)ethyl]oxy}-5-(5-[6-[[3-(dimethylamino)propyl](methyl)amino]-3-pyridinyl]-1H-benzimidazol-1-yl)-2-thiophenecarboxamide] | < 100 nM | < 500 nM |
| C[C@@H](Oc1cc(-n2cnc3cc(-c4ccc(NCCCN5CCN(C)CC5)nn4)ccc32)sc1C(N)=O)c1ccccc1Cl [Example 34, 3-{[(1R)-1-(2-chlorophenyl)ethyl]oxy}-5-[5-(6-{[3-(4-methyl-1-piperazinyl)propyl]amino}-3-pyridazinyl)-1H-benzimidazol-1-yl]-2-thiophenecarboxamide] | < 100 nM | 500 to 1000 nM |
